Measurements reported in patent publication US9695155B2, “Herbicidal substituted pyrimidinyloxy benzene compounds” (E. I. DU PONT DE NEMOURS AND COMPANY, priority 2013, dated 2017).

How the values were obtained:
ragweed [1] = test: Test A postemergence; type: in vivo, Ambrosia elatior; conditions: for Plant response rating, Ragweed: 0 to 100 scale, 0 no effect, 100 complete control
How it was run: (§1)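 Compounds in non-phytotoxic solvent with surfactant applied as soil spray preemergence, or postemergence to plants 2-10 cm at one- to two-leaf stage, in loam/sand. After approximately 10 days in greenhouse, injury rated visually versus untreated controls, 0 (no effect) to 100 (complete control).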

Italian ryegrass = test: Test A postemergence; type: in vivo, Lolium multiflorum; conditions: for Plant response rating, Ryegrass, Italian: 0 to 100 scale, 0 no effect, 100 complete control
How it was run: as §1

velvetleaf = test: Test E preemergence; type: in vivo, Abutilon theophrasti; conditions: for Velvetleaf plant response rating: scale 0 to 100 (0 no effect, 100 complete control); for Plant response rating, Velvetleaf: 125 g ai/ha, scale 0 to 100, 0 no effect, 100 complete control
How it was run: (§2)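 Test chemicals formulated in a non-phytotoxic solvent mixture containing a surfactant were applied preemergence to seeds in silt loam soil or postemergence to plants at the 1- to 4-leaf stage in potting mix. After 14 to 21 days in a greenhouse, injury was visually rated against controls on a 0-100 scale (0 = no effect, 100 = complete control).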

large (Lg) crabgrass = test: Test E preemergence; type: in vivo, Digitaria sanguinalis; conditions: for Crabgrass, Large plant response rating: scale 0 to 100 (0 no effect, 100 complete control); for Plant response rating, Crabgrass, Large: 125 g ai/ha, scale 0 to 100, 0 no effect, 100 complete control
How it was run: as §2

fall panicum = test: Test E preemergence; type: in vivo, Panicum dichotomiflorum; conditions: for Panicum, Fall plant response rating: scale 0 to 100 (0 no effect, 100 complete control); for Plant response rating, Panicum, Fall: 125 g ai/ha, scale 0 to 100, 0 no effect, 100 complete control
How it was run: as §2

green foxtail = test: Test E preemergence; type: in vivo, Setaria viridis; conditions: for Foxtail, Green plant response rating: scale 0 to 100 (0 no effect, 100 complete control); for Plant response rating, Foxtail, Green: 125 g ai/ha, scale 0 to 100, 0 no effect, 100 complete control
How it was run: as §2

johnsongrass = test: Test E preemergence; type: in vivo, Sorghum halepense; conditions: for Johnsongrass plant response rating: scale 0 to 100 (0 no effect, 100 complete control); for Plant response rating, Johnsongrass: 125 g ai/ha, scale 0 to 100, 0 no effect, 100 complete control
How it was run: as §2

ragweed [2] = test: Test E preemergence; type: in vivo, Ambrosia elatior; conditions: for Ragweed plant response rating: scale 0 to 100 (0 no effect, 100 complete control); for Plant response rating, Ragweed: 125 g ai/ha, scale 0 to 100, 0 no effect, 100 complete control
How it was run: as §2

arrowleaf sida = test: Test E preemergence; type: in vivo, Sida rhombifolia; conditions: preemergence; for Arrowleaf Sida plant response rating: scale 0 to 100 (0 no effect, 100 complete control); for Plant response rating, Arrowleaf Sida: 125 g ai/ha, scale 0 to 100, 0 no effect, 100 complete control
How it was run: as §2

dayflower = test: Test E preemergence; type: in vivo, Commelina virginica; conditions: for Dayflower, VA plant response rating: scale 0 to 100 (0 no effect, 100 complete control); for Plant response rating, Dayflower, VA: 125 g ai/ha, scale 0 to 100, 0 no effect, 100 complete control
How it was run: as §2

morningglory = test: Test E preemergence; type: in vivo, Ipomoea coccinea; conditions: for Morningglory plant response rating: scale 0 to 100 (0 no effect, 100 complete control); for Plant response rating, Morningglory: 125 g ai/ha, scale 0 to 100, 0 no effect, 100 complete control
How it was run: as §2

nightshade = test: Test E preemergence; type: in vivo, Solanum ptycanthum; conditions: for Nightshade plant response rating: scale 0 to 100 (0 no effect, 100 complete control); for Plant response rating, Nightshade: 125 g ai/ha, scale 0 to 100, 0 no effect, 100 complete control
How it was run: as §2

hairy beggarticks = test: Test E preemergence; type: in vivo, Bidens pilosa; conditions: preemergence; for Beggarticks plant response rating: scale 0 to 100 (0 no effect, 100 complete control); for Plant response rating, Beggarticks: 125 g ai/ha, scale 0 to 100, 0 no effect, 100 complete control
How it was run: as §2

[3] = 125 g ai/ha, 0 to 100 scale where 0 is no effect and 100 is complete control

SMILES: N#Cc1cnn(-c2c(CF)cccc2Oc2ncc(F)cn2)c1 [Compound 151]
- Plant response rating, Ragweed (ragweed [1]; 31 g ai/ha): 50
- Ragweed plant response rating (ragweed [1]; [3]): 100
- Plant response rating, Ryegrass, Italian (Italian ryegrass; 31 g ai/ha): 0
- Ryegrass, Italian plant response rating (Italian ryegrass; [3]): 30
- Velvetleaf plant response rating (velvetleaf; 31 g ai/ha): 95
- Velvetleaf plant response rating (velvetleaf; 62 g ai/ha): 100
- Plant response rating, Velvetleaf (velvetleaf): 100
- Crabgrass, Large plant response rating (large (Lg) crabgrass; 16 g ai/ha): 0
- Crabgrass, Large plant response rating (large (Lg) crabgrass; 31 g ai/ha): 5
- Crabgrass, Large plant response rating (large (Lg) crabgrass; 62 g ai/ha): 60
- Plant response rating, Crabgrass, Large (large (Lg) crabgrass): 100
- Panicum, Fall plant response rating (fall panicum; 31 g ai/ha): 60
- Panicum, Fall plant response rating (fall panicum; 62 g ai/ha): 100
- Plant response rating, Panicum, Fall (fall panicum): 98
- Foxtail, Green plant response rating (green foxtail; 16 g ai/ha): 20
- Foxtail, Green plant response rating (green foxtail; 31 g ai/ha): 20
- Foxtail, Green plant response rating (green foxtail; 62 g ai/ha): 70
- Plant response rating, Foxtail, Green (green foxtail): 75
- Johnsongrass plant response rating (johnsongrass; 31 g ai/ha): 0
- Johnsongrass plant response rating (johnsongrass; 62 g ai/ha): 35
- Plant response rating, Johnsongrass (johnsongrass): 70
- Ragweed plant response rating (ragweed [2]; 31 g ai/ha): 90
- Ragweed plant response rating (ragweed [2]; 62 g ai/ha): 95
- Plant response rating, Ragweed (ragweed [2]): 100
- Arrowleaf Sida plant response rating (arrowleaf sida; 16 g ai/ha): 60
- Arrowleaf Sida plant response rating (arrowleaf sida; 31 g ai/ha): 80
- Arrowleaf Sida plant response rating (arrowleaf sida; 62 g ai/ha): 100
- Plant response rating, Arrowleaf Sida (arrowleaf sida): 100
- Dayflower, VA plant response rating (dayflower; 16 g ai/ha): 0
- Dayflower, VA plant response rating (dayflower; 31 g ai/ha): 10
- Dayflower, VA plant response rating (dayflower; 62 g ai/ha): 65
- Plant response rating, Dayflower, VA (dayflower): 85
- Morningglory plant response rating (morningglory; 31 g ai/ha): 0
- Morningglory plant response rating (morningglory; 62 g ai/ha): 0
- Plant response rating, Morningglory (morningglory): 0
- Nightshade plant response rating (nightshade; 31 g ai/ha): 30
- Nightshade plant response rating (nightshade; 62 g ai/ha): 75
- Plant response rating, Nightshade (nightshade): 90
- Beggarticks plant response rating (hairy beggarticks; 16 g ai/ha): 65
- Beggarticks plant response rating (hairy beggarticks; 31 g ai/ha): 65
- Beggarticks plant response rating (hairy beggarticks; 62 g ai/ha): 95
- Plant response rating, Beggarticks (hairy beggarticks): 100

SMILES: FCc1cccc(Oc2ncc(Cl)cn2)c1-n1cc(Cl)cn1 [Compound 250]
- Plant response rating, Ragweed (ragweed [1]; 31 g ai/ha): 50
- Plant response rating, Ragweed (ragweed [1]; 125 g ai/ha): 100
- Plant response rating, Ryegrass, Italian (Italian ryegrass; 31 g ai/ha): 0
- Plant response rating, Ryegrass, Italian (Italian ryegrass; 125 g ai/ha): 0
- Velvetleaf plant response rating (velvetleaf; 31 g ai/ha): 75
- Velvetleaf plant response rating (velvetleaf; 62 g ai/ha): 75
- Plant response rating, Velvetleaf (velvetleaf): 100
- Crabgrass, Large plant response rating (large (Lg) crabgrass; 16 g ai/ha): 0
- Crabgrass, Large plant response rating (large (Lg) crabgrass; 31 g ai/ha): 0
- Crabgrass, Large plant response rating (large (Lg) crabgrass; 62 g ai/ha): 0
- Plant response rating, Crabgrass, Large (large (Lg) crabgrass): 100
- Panicum, Fall plant response rating (fall panicum; 31 g ai/ha): 0
- Panicum, Fall plant response rating (fall panicum; 62 g ai/ha): 0
- Plant response rating, Panicum, Fall (fall panicum): 100
- Foxtail, Green plant response rating (green foxtail; 16 g ai/ha): 0
- Foxtail, Green plant response rating (green foxtail; 31 g ai/ha): 0
- Foxtail, Green plant response rating (green foxtail; 62 g ai/ha): 0
- Plant response rating, Foxtail, Green (green foxtail): 90
- Johnsongrass plant response rating (johnsongrass; 31 g ai/ha): 0
- Johnsongrass plant response rating (johnsongrass; 62 g ai/ha): 0
- Plant response rating, Johnsongrass (johnsongrass): 50
- Ragweed plant response rating (ragweed [2]; 31 g ai/ha): 0
- Ragweed plant response rating (ragweed [2]; 62 g ai/ha): 0
- Plant response rating, Ragweed (ragweed [2]): 0
- Arrowleaf Sida plant response rating (arrowleaf sida; 16 g ai/ha): 0
- Arrowleaf Sida plant response rating (arrowleaf sida; 31 g ai/ha): 20
- Arrowleaf Sida plant response rating (arrowleaf sida; 62 g ai/ha): 60
- Plant response rating, Arrowleaf Sida (arrowleaf sida): 100
- Dayflower, VA plant response rating (dayflower; 16 g ai/ha): 0
- Dayflower, VA plant response rating (dayflower; 31 g ai/ha): 0
- Dayflower, VA plant response rating (dayflower; 62 g ai/ha): 50
- Plant response rating, Dayflower, VA (dayflower): 70
- Morningglory plant response rating (morningglory; 31 g ai/ha): 0
- Morningglory plant response rating (morningglory; 62 g ai/ha): 0
- Plant response rating, Morningglory (morningglory): 20
- Nightshade plant response rating (nightshade; 31 g ai/ha): 0
- Nightshade plant response rating (nightshade; 62 g ai/ha): 35
- Plant response rating, Nightshade (nightshade): 98
- Beggarticks plant response rating (hairy beggarticks; 16 g ai/ha): 0
- Beggarticks plant response rating (hairy beggarticks; 31 g ai/ha): 0
- Beggarticks plant response rating (hairy beggarticks; 62 g ai/ha): 0
- Plant response rating, Beggarticks (hairy beggarticks): 20
